From ChEMBL document CHEMBL2157906, “Identification of a dual δ OR antagonist/μ OR agonist as a potential therapeutic for diarrhea-predominant Irritable Bowel Syndrome (IBS-d)” (Bioorg Med Chem Lett, 2012)
Activity calls are given as the source filed them. The calls are words filed in the database; no cut-off is given here.

Assays:
[1] = target: Delta-type opioid receptor (Rattus norvegicus, UniProt P33533); assay: Binding affinity to rat delta opioid receptor
Mu-type opioid receptor [2] = target: Mu-type opioid receptor (Rattus norvegicus, UniProt P33535); assay: Binding affinity to rat mu opioid receptor
[3] = target: T1, Delta-type opioid receptor (Homo sapiens, UniProt P41143); assay: Agonist activity at delta opioid receptor expressed in CHO-hg cells by [35S]-GTPgammaS binding assay; type: functional, cell-based
[4] = target: T2, Kappa-type opioid receptor (Cavia porcellus, UniProt P41144); assay: Binding affinity to guinea pig kappa opioid receptor
[5] = target: T2, Kappa-type opioid receptor; assay: Agonist activity at kappa opioid receptor guinea pig colon tissue; type: functional, tissue-based
Mu-type opioid receptor [6] = target: T3, Mu-type opioid receptor (Homo sapiens, UniProt P35372); assay: Agonist activity at mu opioid receptor expressed in CHO-hg cells by [35S]-GTPgammaS binding assay; type: functional, cell-based
[7] = Antagonist activity at delta opioid receptor in hamster vas deferens tissue; type: functional, tissue-based; settings: Cricetinae
[8] = target: T1, Delta-type opioid receptor; assay: Antagonist activity at delta opioid receptor expressed in CHO-hg cells assessed as inhibition of SNC-80-induced [35S]-GTPgammaS binding; type: functional, cell-based
Cytochrome P450 3A4 = Cytochrome P450 3A4 (Homo sapiens, UniProt P08684); assay: Inhibition of CYP3A4 in human liver microsomes; type: ADME, Microsome
[9] = Half life in human liver microsomess; type: ADME, Microsome; settings: liver microsomes
Mu-type opioid receptor [10] = target: T3, Mu-type opioid receptor; assay: Binding affinity to human mu opioid receptor
[11] = Solubility of the compound at pH 7.4; type: physicochemical; settings: buffer
[12] = target: Voltage-gated inwardly rectifying potassium channel KCNH2 (Homo sapiens, UniProt Q12809); assay: Displacement of [3H]-astemizole from human ERG
Voltage-gated inwardly rectifying potassium channel KCNH2, sequence (Q12809 whole entry): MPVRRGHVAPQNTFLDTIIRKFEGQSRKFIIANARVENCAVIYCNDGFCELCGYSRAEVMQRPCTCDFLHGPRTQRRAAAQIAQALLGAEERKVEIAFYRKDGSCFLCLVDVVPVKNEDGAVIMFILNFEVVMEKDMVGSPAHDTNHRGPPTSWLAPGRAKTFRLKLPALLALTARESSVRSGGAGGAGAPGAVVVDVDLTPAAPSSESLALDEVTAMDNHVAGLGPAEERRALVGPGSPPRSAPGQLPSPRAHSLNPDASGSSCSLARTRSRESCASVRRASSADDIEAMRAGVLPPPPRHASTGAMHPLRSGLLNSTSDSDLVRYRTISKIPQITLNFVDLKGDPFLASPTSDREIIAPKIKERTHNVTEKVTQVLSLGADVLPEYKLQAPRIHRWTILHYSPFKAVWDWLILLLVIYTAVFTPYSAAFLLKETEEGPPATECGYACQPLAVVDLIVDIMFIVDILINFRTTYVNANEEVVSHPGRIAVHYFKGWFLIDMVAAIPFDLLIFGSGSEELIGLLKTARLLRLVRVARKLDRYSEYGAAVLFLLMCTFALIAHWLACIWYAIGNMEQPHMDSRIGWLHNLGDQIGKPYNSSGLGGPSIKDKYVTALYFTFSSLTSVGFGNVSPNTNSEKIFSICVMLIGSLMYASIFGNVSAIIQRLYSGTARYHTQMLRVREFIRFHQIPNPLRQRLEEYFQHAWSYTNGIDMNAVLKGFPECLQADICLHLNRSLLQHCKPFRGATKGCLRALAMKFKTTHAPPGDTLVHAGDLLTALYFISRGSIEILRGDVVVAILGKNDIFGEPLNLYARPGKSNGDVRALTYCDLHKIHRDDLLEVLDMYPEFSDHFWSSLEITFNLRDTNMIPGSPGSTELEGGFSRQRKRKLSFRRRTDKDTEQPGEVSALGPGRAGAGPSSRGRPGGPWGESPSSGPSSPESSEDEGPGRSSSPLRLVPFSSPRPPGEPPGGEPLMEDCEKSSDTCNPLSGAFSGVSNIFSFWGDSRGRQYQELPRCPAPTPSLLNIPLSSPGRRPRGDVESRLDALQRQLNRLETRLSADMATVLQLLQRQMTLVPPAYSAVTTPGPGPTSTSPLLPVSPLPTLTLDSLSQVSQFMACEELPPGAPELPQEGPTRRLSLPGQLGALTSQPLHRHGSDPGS

T1 sequence (P41143 whole entry): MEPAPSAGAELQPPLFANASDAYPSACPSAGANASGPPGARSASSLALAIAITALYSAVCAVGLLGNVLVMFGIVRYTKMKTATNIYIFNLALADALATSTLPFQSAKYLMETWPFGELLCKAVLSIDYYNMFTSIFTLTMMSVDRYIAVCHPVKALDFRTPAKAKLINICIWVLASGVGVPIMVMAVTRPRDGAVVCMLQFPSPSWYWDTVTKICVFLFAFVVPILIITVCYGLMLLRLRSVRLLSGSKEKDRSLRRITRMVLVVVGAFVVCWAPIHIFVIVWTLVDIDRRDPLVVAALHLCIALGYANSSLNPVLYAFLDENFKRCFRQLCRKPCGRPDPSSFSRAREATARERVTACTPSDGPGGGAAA
Delta-type opioid receptor (Rattus norvegicus, UniProt P33533), sequence (P33533 whole entry): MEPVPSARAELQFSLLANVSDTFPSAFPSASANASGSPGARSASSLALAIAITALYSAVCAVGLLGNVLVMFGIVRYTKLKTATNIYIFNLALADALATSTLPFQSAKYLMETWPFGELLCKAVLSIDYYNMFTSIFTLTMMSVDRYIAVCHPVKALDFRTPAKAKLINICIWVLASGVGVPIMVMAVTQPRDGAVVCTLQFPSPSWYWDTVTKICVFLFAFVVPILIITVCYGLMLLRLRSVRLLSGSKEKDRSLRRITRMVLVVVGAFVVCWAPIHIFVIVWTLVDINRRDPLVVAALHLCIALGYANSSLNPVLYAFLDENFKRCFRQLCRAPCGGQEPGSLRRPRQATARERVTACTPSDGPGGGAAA
Mu-type opioid receptor (Rattus norvegicus, UniProt P33535), sequence (P33535 whole entry): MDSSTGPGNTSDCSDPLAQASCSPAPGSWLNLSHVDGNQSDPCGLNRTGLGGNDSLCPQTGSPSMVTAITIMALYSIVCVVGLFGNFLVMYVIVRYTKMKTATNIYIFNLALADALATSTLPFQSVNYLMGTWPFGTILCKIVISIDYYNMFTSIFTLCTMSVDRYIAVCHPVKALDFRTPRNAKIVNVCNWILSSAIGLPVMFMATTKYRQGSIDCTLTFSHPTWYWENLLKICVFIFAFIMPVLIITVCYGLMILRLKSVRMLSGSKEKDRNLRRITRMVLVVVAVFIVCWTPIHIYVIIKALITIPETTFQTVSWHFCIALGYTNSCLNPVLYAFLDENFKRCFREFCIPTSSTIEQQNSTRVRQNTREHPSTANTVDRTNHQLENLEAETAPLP
T3 sequence (P35372 whole entry): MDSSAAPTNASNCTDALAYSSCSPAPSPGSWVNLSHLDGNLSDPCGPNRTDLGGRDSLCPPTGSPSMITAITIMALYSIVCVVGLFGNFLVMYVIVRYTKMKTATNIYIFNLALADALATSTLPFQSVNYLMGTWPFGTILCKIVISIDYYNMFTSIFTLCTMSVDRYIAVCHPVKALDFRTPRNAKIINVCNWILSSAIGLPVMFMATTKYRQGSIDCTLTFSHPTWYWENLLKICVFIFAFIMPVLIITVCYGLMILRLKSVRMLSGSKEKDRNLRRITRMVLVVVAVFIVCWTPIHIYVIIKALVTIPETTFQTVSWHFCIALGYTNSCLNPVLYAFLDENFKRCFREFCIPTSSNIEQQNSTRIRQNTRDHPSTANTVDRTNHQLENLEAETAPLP
T2 sequence (P41144 whole entry): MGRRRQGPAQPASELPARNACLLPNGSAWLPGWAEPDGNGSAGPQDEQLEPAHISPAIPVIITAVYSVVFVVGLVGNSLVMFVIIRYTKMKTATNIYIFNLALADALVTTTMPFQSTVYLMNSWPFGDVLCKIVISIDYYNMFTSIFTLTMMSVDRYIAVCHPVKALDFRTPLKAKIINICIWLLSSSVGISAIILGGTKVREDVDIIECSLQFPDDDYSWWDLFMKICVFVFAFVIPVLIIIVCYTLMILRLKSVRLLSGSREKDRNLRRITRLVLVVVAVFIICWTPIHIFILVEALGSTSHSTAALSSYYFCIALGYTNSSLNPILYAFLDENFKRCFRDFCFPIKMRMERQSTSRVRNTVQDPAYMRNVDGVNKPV
Cytochrome P450 3A4, sequence (P08684 whole entry): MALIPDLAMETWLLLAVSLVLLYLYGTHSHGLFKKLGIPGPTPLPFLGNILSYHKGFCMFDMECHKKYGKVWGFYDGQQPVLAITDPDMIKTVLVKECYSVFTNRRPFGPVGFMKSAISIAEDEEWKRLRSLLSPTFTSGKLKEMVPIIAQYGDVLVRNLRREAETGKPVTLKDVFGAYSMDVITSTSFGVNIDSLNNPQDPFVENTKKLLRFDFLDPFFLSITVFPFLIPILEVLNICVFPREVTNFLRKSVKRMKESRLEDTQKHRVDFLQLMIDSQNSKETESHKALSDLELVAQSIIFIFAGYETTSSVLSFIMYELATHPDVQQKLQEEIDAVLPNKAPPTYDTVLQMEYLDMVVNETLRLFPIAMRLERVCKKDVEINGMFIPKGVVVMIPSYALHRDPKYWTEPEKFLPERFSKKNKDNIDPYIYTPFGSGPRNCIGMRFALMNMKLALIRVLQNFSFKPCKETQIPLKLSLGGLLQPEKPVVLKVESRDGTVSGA

SMILES	Ki [1] [nM]	Ki (Mu-type opioid receptor [2]) [nM]	EC50 [3] [nM]	EC50 (Mu-type opioid receptor [6]) [nM]	other results
Cc1cc(O)cc(C)c1C[C@H](N)C(=O)N(Cc1ccccc1)[C@@H](C)c1nc(-c2ccccc2)c[nH]1	1.5				
Cc1cc(C(N)=O)cc(C)c1C[C@H](N)C(=O)N(Cc1ccccc1)[C@@H](C)c1nc(-c2ccccc2)c[nH]1		0.3			
Cc1cc(O)cc(C)c1C[C@H](N)C(=O)N[C@@H](Cc1ccccc1)c1nc(-c2ccccc2)c[nH]1		13			
COc1ccc(CN(C(=O)[C@@H](N)Cc2c(C)cc(C(N)=O)cc2C)[C@@H](C)c2nc(-c3ccccc3)c[nH]2)cc1C(=O)O [ELUXADOLINE]	1.3	0.9	> 10000		Ki [4]: 55 nM; EC50 [5]: 1600 nM
Cc1cc(O)cc(C)c1C[C@H](N)C(=O)N1CCCC[C@H]1c1nc(-c2ccccc2)c[nH]1			37	2	
Cc1cc(O)cc(C)c1C[C@H](N)C(=O)N1Cc2ccccc2C[C@H]1c1nc(-c2ccccc2)c[nH]1			0.9	27	
COc1ccc(CN(C(=O)[C@@H](N)Cc2c(C)cc(C(N)=O)cc2C)[C@@H](C)c2ncc(-c3ccccc3)[nH]2)cc1C(=O)O [ELUXADOLINE]					IC50 [7]: 89 nM; inhibition [8]: Active
Cc1cc(C(N)=O)cc(C)c1C[C@H](N)C(=O)N(Cc1cccc(C(=O)O)c1)[C@@H](C)c1nc(-c2ccccc2)c[nH]1	0.5	1	> 10000		inhibition [8]: Active
Cc1cc(O)cc(C)c1C[C@H](N)C(=O)N(C(C)C)[C@@H](C)c1nc(-c2ccccc2)c[nH]1	1.4	0.03	103		
Cc1cc(C(N)=O)cc(C)c1C[C@H](N)C(=O)N1Cc2ccccc2C[C@H]1c1nc(-c2ccccc2)c[nH]1			22	161	
Cc1cc(O)cc(C)c1C[C@H](N)C(=O)N(C)[C@@H](C)c1nc(-c2ccccc2)c[nH]1	15				
N[C@@H](Cc1ccc(O)cc1)C(=O)N1Cc2ccccc2C[C@H]1c1nc(-c2ccccc2)c[nH]1			19	2440	
COc1ccc(CN(C(=O)[C@@H](N)Cc2c(C)cc(C(N)=O)cc2C)C(C)c2nc(-c3ccccc3)c[nH]2)cc1C(=O)O.Cl.Cl (single isomer, unassigned)					IC50 (Cytochrome P450 3A4): > 20000 nM; half-life [9]: 2.5 h; Ki (Mu-type opioid receptor [10]): 1.7 nM; solubility [11]: > 1000 µg/mL; IC50 [12]: > 10000 nM
Cc1cc(C(N)=O)cc(C)c1C[C@H](N)C(=O)N1CCCC[C@H]1c1nc(-c2ccccc2)c[nH]1			135	9	
Cc1cc(O)cc(C)c1C[C@H](N)C(=O)N(Cc1nc(-c2ccccc2)c[nH]1)C(C)C	15	0.1			
